Measured values reported in US8609836B2, “4-aryl-2-anilino-pyrimidines” (Janssen Pharmaceutica NV, priority 2008, dated 2013).

Legend:
PLK1 T210D (h) = PLK1 T210D (h) (Homo sapiens, UniProt P53350, T210D); assay: PLK1 human kinase inhibition, SPA; format: biochemical; conditions: read-out: PLK1 pIC50 (converted)
Description: (§1) The in vitro inhibition of a panel of kinases was assessed using either the scintillation proximity assay (SPA) as described by Cook, N. D. et al., Advances in Experimental Medicine and Biology (1991), 36; p. 525-528.
(§2) In the SPA technology the activity of the kinase of interest is measured using an appropriate biotinylated substrate that is incubated with the aforementioned kinase protein in the presence of (^33P) radiolabeled ATP. (^33P) Phosphorylation of the substrate is subsequently measured through binding of the phosphorylated substrate to streptavidine coated beads that are based on the scintillant poly(vinyl toluene) (PVT-Beads). The scintillation intensity is detected by imaging on Leadseeker.
(§3) All kinases are pre-diluted to a 10× working concentration prior to addition into the assay. The composition of the dilution buffer for each kinase is detailed below.
In a final reaction volume of 30 μl, PLK1 T210D (h) (0.125 ng/ml) is incubated with 50 mM Hepes pH 8.0, 2 mM MnCl2, 1 mM DTT, 2 μM of peptide Biotin-Tds linker-[…], 0.1 μM ATP and 2 nM [γ-^33P-ATP] (6.0 μCi/ml). After incubation of 40 minutes at room temperature, the reaction is stopped by addition of 40 μL of stop solution containing 8.7 mM EDTA, BSA 0.17%, 0.17% Triton X-100, 25 mg/ml SPA beads (GE-healthcare). The plate is centrifuged and read for Scintillation imaging on Leadseeker.

AuroraB (h) = AuroraB (h) (Homo sapiens, UniProt Q96GD4); assay: Aurora-B human kinase inhibition, SPA; format: biochemical; conditions: read-out: AuroraB pIC50 (converted)
Description: as §1, §2, §3
In a final reaction volume of 30 μl, AuroraB (h) (0.5 μg/ml) is incubated with 60 mM Hepes pH 7.5, 3 mM MgCl2, 3 mM MnCl2, 3 μM Na3VO4, 0.05 mg/ml PEG, 2 mM DTT, 3 μM Biotin-[…]-OH, 0.5 μM ATP and 2.2 nM [γ-^33P-ATP] (6.8 μCi/ml). After incubation of 60 minutes at room temperature, the reaction is stopped by addition of 40 μL of stop solution containing 8.7 mM EDTA, BSA 0.17%, 0.17% Triton X-100, 5 mg/ml SPA beads (GE-healthcare). The plate is centrifuged and read for Scintillation imaging on Leadseeker.

H1299 = assay: Cellular proliferation assay (Alamar blue), H1299; format: cell-based; conditions: Homo sapiens, NCI-H1299; 10% FCS; 72 hours with compound; Alamar blue 4 h
Description: (§4) […] functional properties of these compounds were tested in cellular proliferation assays on a panel of different cell lines in the presence of 10% FCS serum (37° C. and 5% (v/v) CO2). In a first step these cells were seeded and incubated for 24 hours in the absence of compound. In the second step the cells were incubated for 72 hours with the compounds to be tested for 72 hours. The viable cell number was finally assessed in a standard Alamar blue cell viability assay.
(§5) The viable cell number was assessed by incubation for either 4 h (HCT-116, H1299) 6 h (U87-MG) or 24 h (A2780, MDA-MB-231) with Alamar blue (Resazurin 9 μg/ml, K-Ferrocyanide 90 μM, K-Ferricyanide 90 μM) and the converted fluorescent product was quantified on a fluorescent plate reader (544 nm/590 nm). Effect of the compounds is calculated as of on control cells.

GSK3β (h) = GSK3β (h) (Homo sapiens, UniProt P49841); assay: GSK-3β human kinase inhibition, SPA; format: biochemical; conditions: read-out: GSK3b pIC50 (converted)
Description: as §1, §2, §3
In a final reaction volume of 30 μl, GSK3β (h) (1 μg/ml) is incubated with 25 mM Tris pH 7.4, 10 mM MgCl2, 1 mM DTT, 1 μM peptide Biotin-[…]-OH, 1 μM ATP and 2 nM [γ-^33P-ATP] (6.0 μCi/ml). After incubation of 60 minutes at room temperature, the reaction is stopped by addition of 40 μL of stop solution containing 8.7 mM EDTA, BSA 0.17%, 0.17% Triton X-100, 6.25 mg/ml SPA beads (GE-healthcare). The plate is centrifuged and read for Scintillation imaging on Leadseeker.

U87-MG = assay: Cellular proliferation assay (Alamar blue), U87-MG; format: cell-based; conditions: Homo sapiens, U-87 MG; 10% FCS; 72 hours with compound; Alamar blue 6 h; read-out: U87-MG (cellular proliferation assay, Table 4) (converted)
Description: as §4, §5

A2780 = assay: Cellular proliferation assay (Alamar blue), A2780; format: cell-based; conditions: Homo sapiens, 10% FCS, 72 hours with compound, Alamar blue 24 h, read-out: A2780 (cellular proliferation assay, Table 4) (converted)
Description: as §4, §5

HCT-116 = assay: Cellular proliferation assay (Alamar blue), HCT-116; format: cell-based; conditions: Homo sapiens, 10% FCS, 72 hours with compound, Alamar blue 4 h
Description: as §4, §5

PLK2 (h) = PLK2 (h) (Homo sapiens, UniProt Q9NYY3); assay: PLK2 human kinase inhibition, SPA; format: biochemical; conditions: read-out: PLK2 pIC50 (converted)
Description: as §1, §2, §3
(§6) In a final reaction volume of 30 μl, PLK2 (h) (30 μg/ml) is incubated with 50 mM Hepes pH 8.0, 2 mM MnCl2, 1 mM DTT, 2 μM of peptide Biotin-Tds linker-[…], 0.1 μM ATP and 2 nM [γ-^33P-ATP] (6.0 μCi/ml). After incubation of 20 minutes at room temperature, the reaction is stopped by addition of 40 μL of stop solution containing 8.7 mM EDTA, BSA 0.17%, 0.17% Triton X-100, 25 mg/ml SPA beads (GE-healthcare). The plate is centrifuged and read for Scintillation imaging on Leadseeker.

CDK1/CyclinB (h) = CDK1/CyclinB (h) (Homo sapiens, UniProt P06493); assay: CDK1/CyclinB human kinase inhibition, Invitrogen's FRET assay (Z'lyte); format: biochemical; conditions: read-out: CDK1 pIC50 (converted)
Description: as §1, §3
In a final reaction volume of 10 μl, CDK1/CyclinB (h) (0.2 μg/ml) is incubated with 50 mM Hepes pH 7.5, 10 mM MgCl2, 1 mM EGTA, 0.01% Brij-35, 2 μM Z'lyte Ser/Thr peptide 12 and 10 μM ATP (Invitrogen's FRET assay). After incubation of 60 minutes at room temperature, the reaction is stopped by addition of 5 μL development reagent containing protease mix. After 60 minutes room temperature the development reaction is stopped by adding 5 μl stop solution. The plate is then read in fluorescence plate reader with excitation: 390 nm and dual emission: 460 and 538 nm. Emission ratio is determined to the formula=Emission signal intensity at 460 nm/Emission signal intensity at 538 nm.

MDA-MB-231 = assay: Cellular proliferation assay (Alamar blue), MDA-MB-231; format: cell-based; conditions: Homo sapiens, 10% FCS, 72 hours with compound, Alamar blue 24 h, read-out: MDA/MB231 (cellular proliferation assay, Table 4) (converted)
Description: as §4, §5

PLK4 (h) = PLK4 (h) (Homo sapiens, UniProt O00444); assay: PLK-4 human kinase inhibition, scintillation proximity assay (SPA); format: biochemical; conditions: read-out: PLK4 pIC50 (converted)
Description: as §2, §3
(6.0 μCi/ml). After incubation of 60 minutes at room temperature, the reaction is stopped by addition of 40 μL of stop solution containing 8.7 mM EDTA, BSA 0.17%, 0.17% Triton X-100, 1.7 mg/ml SPA beads (GE-healthcare). The plate is centrifuged and read for Scintillation imaging on Leadseeker.

PLK3 (h) = PLK3 (h) (Homo sapiens, UniProt Q9H4B4); assay: PLK3 human kinase inhibition, SPA; format: biochemical; conditions: read-out: PLK3 pIC50 (converted)
Description: as §1, §2, §3
as §6, with “PLK3” for “PLK2”

Sequence of PLK2 (h) (Q9NYY3 whole entry): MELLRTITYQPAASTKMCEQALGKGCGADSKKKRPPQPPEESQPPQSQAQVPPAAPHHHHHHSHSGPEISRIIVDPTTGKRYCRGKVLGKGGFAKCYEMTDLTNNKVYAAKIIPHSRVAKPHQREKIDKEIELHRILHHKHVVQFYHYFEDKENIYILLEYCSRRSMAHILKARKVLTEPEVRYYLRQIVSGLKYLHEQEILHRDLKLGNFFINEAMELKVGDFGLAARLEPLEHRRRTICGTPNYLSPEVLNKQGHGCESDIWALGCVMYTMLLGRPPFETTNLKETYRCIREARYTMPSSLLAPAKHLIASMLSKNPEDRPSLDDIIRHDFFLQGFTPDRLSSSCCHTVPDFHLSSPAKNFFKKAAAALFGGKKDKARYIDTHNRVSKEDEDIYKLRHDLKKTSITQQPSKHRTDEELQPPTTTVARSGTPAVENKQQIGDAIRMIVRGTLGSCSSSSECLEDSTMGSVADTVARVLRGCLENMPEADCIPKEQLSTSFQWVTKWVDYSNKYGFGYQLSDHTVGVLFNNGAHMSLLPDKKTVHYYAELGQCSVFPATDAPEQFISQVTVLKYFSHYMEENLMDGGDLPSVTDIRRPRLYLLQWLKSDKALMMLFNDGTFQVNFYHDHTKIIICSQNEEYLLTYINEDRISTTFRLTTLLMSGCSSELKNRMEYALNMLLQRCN
Sequence of PLK3 (h) (Q9H4B4 whole entry): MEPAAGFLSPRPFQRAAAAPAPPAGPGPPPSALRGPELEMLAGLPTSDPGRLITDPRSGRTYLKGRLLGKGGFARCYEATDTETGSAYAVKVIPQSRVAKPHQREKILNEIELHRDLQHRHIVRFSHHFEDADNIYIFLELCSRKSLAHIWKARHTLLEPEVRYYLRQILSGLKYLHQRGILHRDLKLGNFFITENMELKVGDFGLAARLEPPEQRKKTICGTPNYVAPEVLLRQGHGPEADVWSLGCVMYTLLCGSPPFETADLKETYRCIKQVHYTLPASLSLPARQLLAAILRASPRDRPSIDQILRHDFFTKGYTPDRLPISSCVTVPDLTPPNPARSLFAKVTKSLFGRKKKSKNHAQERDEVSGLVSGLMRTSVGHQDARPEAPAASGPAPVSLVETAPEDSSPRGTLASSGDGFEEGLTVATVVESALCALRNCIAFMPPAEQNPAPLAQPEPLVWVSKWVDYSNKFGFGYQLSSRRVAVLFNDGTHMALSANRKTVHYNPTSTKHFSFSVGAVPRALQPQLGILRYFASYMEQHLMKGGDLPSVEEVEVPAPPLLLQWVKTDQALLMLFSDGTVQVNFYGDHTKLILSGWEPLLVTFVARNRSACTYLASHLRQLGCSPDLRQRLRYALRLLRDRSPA
Sequence of GSK3β (h) (P49841 whole entry): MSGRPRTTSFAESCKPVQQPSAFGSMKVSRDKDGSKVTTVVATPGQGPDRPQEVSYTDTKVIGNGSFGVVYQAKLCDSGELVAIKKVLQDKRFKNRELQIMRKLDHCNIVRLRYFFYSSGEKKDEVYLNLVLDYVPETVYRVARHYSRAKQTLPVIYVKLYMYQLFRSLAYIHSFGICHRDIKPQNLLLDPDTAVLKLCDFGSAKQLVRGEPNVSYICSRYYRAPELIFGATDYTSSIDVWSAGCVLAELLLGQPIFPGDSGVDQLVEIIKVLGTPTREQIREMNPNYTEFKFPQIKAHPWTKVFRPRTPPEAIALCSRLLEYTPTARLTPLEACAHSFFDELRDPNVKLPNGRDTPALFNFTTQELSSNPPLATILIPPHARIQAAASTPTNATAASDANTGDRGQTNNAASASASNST
Sequence of CDK1/CyclinB (h) (P06493 whole entry): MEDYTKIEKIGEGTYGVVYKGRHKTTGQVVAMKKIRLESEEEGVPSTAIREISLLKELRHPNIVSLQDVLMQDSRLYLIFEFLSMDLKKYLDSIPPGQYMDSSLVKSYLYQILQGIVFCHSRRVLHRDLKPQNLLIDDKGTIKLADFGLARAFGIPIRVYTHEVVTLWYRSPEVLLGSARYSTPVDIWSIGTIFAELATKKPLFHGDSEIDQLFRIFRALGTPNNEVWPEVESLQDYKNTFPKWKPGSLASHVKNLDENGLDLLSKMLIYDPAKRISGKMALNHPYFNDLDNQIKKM
Sequence of CDK1/CyclinB (h) (P14635 whole entry partner): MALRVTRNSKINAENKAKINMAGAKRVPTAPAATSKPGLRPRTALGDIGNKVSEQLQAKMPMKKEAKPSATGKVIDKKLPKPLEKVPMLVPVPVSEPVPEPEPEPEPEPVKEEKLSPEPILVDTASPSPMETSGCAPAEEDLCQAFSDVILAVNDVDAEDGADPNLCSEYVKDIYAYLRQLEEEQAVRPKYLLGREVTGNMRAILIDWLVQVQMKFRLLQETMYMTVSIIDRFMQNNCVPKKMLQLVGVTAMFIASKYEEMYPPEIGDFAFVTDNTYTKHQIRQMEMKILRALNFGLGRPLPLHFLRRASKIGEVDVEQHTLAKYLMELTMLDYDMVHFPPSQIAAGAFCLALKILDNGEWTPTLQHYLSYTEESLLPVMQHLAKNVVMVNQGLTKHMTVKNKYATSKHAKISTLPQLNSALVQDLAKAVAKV
Sequence of PLK1 T210D (h) (P53350 whole entry T210D): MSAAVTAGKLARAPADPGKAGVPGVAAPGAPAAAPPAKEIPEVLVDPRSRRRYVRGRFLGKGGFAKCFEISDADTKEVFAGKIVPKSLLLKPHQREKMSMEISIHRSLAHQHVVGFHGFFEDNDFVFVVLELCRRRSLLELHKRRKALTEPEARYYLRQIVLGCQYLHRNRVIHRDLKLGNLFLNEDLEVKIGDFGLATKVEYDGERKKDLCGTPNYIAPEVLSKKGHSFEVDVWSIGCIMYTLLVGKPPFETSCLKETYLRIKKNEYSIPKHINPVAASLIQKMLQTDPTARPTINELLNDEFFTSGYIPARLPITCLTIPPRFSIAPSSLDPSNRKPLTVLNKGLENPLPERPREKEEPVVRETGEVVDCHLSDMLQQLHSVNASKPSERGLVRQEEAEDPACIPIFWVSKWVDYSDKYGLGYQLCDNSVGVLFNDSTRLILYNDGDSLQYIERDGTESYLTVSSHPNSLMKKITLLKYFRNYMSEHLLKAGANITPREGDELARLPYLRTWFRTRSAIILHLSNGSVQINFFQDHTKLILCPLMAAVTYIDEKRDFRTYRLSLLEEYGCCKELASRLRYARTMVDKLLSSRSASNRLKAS
Sequence of AuroraB (h) (Q96GD4 whole entry): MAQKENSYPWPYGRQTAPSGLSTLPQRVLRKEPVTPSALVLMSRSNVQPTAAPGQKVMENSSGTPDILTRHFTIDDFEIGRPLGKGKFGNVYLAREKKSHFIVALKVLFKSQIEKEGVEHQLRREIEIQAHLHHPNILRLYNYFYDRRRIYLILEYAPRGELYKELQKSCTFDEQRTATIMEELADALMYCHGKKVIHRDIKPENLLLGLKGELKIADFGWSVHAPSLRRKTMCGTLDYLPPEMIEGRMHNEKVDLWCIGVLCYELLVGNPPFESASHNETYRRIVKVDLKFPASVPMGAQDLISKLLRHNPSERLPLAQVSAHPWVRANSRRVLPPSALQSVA
Sequence of PLK4 (h) (O00444 whole entry): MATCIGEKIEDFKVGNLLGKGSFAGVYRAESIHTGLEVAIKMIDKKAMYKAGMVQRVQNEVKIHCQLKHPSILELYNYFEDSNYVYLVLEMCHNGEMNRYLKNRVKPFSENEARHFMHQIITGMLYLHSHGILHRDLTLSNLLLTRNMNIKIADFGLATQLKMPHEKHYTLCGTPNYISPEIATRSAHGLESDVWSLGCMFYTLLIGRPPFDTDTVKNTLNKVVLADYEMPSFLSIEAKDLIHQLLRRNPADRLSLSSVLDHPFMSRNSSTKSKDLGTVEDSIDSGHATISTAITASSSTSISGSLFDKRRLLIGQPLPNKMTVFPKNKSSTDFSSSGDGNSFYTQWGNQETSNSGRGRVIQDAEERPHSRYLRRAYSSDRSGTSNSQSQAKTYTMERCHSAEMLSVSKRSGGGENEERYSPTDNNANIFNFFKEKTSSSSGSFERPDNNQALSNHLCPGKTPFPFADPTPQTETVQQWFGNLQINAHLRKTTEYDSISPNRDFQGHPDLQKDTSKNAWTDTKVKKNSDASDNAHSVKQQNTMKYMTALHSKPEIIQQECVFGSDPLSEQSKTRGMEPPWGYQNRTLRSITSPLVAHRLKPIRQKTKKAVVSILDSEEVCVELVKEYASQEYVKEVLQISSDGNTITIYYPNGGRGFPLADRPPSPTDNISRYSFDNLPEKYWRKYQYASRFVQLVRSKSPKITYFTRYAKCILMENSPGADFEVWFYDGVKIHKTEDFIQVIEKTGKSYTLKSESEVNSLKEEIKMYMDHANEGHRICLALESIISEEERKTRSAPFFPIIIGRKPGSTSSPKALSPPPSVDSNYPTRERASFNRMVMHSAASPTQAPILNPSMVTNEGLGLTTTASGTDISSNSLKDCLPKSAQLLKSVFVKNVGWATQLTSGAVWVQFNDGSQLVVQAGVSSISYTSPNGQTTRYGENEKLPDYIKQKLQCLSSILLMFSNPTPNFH

Compound	IC50 (PLK1 T210D (h))	IC50 (AuroraB (h))	IC50 (H1299)	IC50 (GSK3β (h))	IC50 (U87-MG)	IC50 (A2780)	IC50 (HCT-116)	IC50 (PLK2 (h))	IC50 (CDK1/CyclinB (h))	IC50 (MDA-MB-231)	IC50 (PLK4 (h))	IC50 (PLK3 (h))
CN1CCNC(=O)[C@H](CO)NCc2cc(cc(N3CCOCC3)c2)Nc2nccc(n2)-c2ccc(cc2)C1 [Compound 108]	> 10 µM	6.03 µM	> 10 µM	6.61 µM	8.91 µM	> 10 µM	8.32 µM	> 3.02 µM	> 10 µM	> 10 µM	0.603 µM	> 10 µM
COc1ccc2cc1CN(C)CCCNC(=O)[C@H](CO)NCc1cc(Br)cc(c1)Nc1nccc-2n1 [Compound 112]	> 10 µM	3.31 µM	> 10 µM	3.89 µM	> 10 µM	> 10 µM	> 10 µM	> 10 µM	> 10 µM	> 10 µM	0.912 µM	> 10 µM
COc1ccc2cc1CN(C)CCNC(=O)[C@H](C)NCc1cc(ccc1N1CCOCC1)Nc1nccc-2n1 [Compound 116]	> 10 µM	> 10 µM	> 10 µM	> 10 µM	5.75 µM	> 10 µM	4.07 µM	> 10 µM	> 10 µM	> 10 µM	1.48 µM	> 10 µM
O=C1NCCNCc2ccc(cc2)-c2ccnc(n2)Nc2ccc(N3CCOCC3)c(c2)CN[C@H]1Cc1ccccc1 [Compound 117]	> 10 µM	> 10 µM	7.59 µM	1 µM	3.89 µM	6.03 µM	4.27 µM	> 10 µM	> 10 µM	> 10 µM	2.24 µM	> 10 µM
CC1(C)NCc2cc(ccc2N2CCOCC2)Nc2nccc(n2)-c2cccc(c2)OCCCNC1=O [Compound 90]	> 10 µM	> 10 µM	8.71 µM	0.417 µM	4.57 µM	6.03 µM	1.7 µM	> 10 µM	4.68 µM	5.37 µM	0.646 µM	> 10 µM
CC(C)Nc1cc2cc(c1)Nc1nccc(n1)-c1ccc(cc1)CN(C)CCCNC(=O)[C@H](CO)NC2 [Compound 111]	> 10 µM	> 10 µM	> 10 µM	> 10 µM	> 10 µM	> 10 µM	> 10 µM	> 3.02 µM	> 10 µM	> 10 µM	0.813 µM	> 10 µM
COc1ccc2cc1CN1CCC(CC1)C(=O)N(C)CCCN(C)c1ccc(cn1)-c1ccnc(n1)N2 [Compound 85]	> 10 µM	> 10 µM	5.89 µM	2.95 µM	> 10 µM	> 10 µM	4.79 µM	> 10 µM	> 10 µM	> 10 µM	5.89 µM	> 10 µM

Now from value to compound:

IC50 (PLK1 T210D (h))	IC50 (AuroraB (h))	IC50 (H1299)	IC50 (GSK3β (h))	IC50 (U87-MG)	IC50 (A2780)	IC50 (HCT-116)	IC50 (PLK2 (h))	IC50 (CDK1/CyclinB (h))	IC50 (MDA-MB-231)	IC50 (PLK4 (h))	IC50 (PLK3 (h))	Compound
> 10 µM	> 10 µM	> 10 µM	2.75 µM	> 10 µM	> 10 µM	> 10 µM	> 10 µM	1.91 µM	> 10 µM	8.13 µM	> 10 µM	O=C1NCc2cccc(c2)-c2ccnc(n2)Nc2cc(ccc2Cl)CN2CCC1CC2 [Compound 123]
> 10 µM	> 10 µM	3.02 µM	6.76 µM	1.7 µM	2.34 µM	0.355 µM	> 10 µM	> 10 µM	> 10 µM	1.82 µM	> 10 µM	CN1CCCNC(=O)CN2CCN(CC2)Cc2cc(cc(N3CCOCC3)c2)Nc2nccc(n2)-c2ccc(cc2)C1 [Compound 136]
> 10 µM	> 10 µM	> 10 µM	> 10 µM	2.09 µM	7.41 µM	7.41 µM	> 10 µM	> 10 µM	> 10 µM	2.19 µM	> 10 µM	O=C1CN2CCN(CC2)Cc2cc(ccc2N2CCOCC2)Nc2nccc(n2)-c2ccc(cc2)CNCCCN1 [Compound 139]
> 10 µM	> 10 µM	> 10 µM	0.49 µM	4.9 µM	> 10 µM	8.51 µM	> 10 µM	4.17 µM	> 10 µM	1.12 µM	> 3.02 µM	CN1CCNC(=O)CN2CCN(CC2)Cc2cc(Br)cc(c2)Nc2nccc(n2)-c2ccc(cc2)C1 [Compound 129]
